Laboratory results published in paper PMC12645137 (Current Neuropharmacology, 2025).

Experiments:
[1] = target: T1, AChE (source Electric eel) (Electrophorus electricus, UniProt O42275); test: biochemical; conditions: for inhibition at 62.5 µg/mL / inhibition at 125 µg/mL / inhibition at 250 µg/mL / inhibition at 500 µg/mL / inhibition at 1000 µg/mL: read-out: % AChE Inhibition
T1 construct: from tissue
Method: (§1) The cholinesterase inhibitory potentials of our synthesized compounds were evaluated against cholinesterase enzymes (AChE/BChE). The AChE (source Electric eel) and BChE (source equine serum) were used in the study following previously published Ellman's assay. The assay basic principle involves the hydrolytic breakdown of acetylthiocholine iodide (ATChI) by AChE and butyryl thiocholine iodide (BTChI) by BChE enzymes, leading to the formation of an intermediate compound which is subsequently complexed with 5,5-dithio bis nitrobenzoic acid (DTNB) to form a UV-detectable compound. The yellowish color product indicates the hydrolysis of ATChI and BTChI substrates by respective enzymes, which were analyzed at 412 nm using a UV-visible spectrophotometer. […] A test sample of 1000 µl was taken in a cuvette, to which enzyme solution (50 µl) and DTNB reagent of 50 µL were added. The AChE (0.03 U/ml) and BChE (0.01 U/ml) solutions were prepared in 0.1 M phosphate buffer having pH 8.0. The ATChI and BTChI substrate solutions (0.0005 M) and 0.0002273 M solution of DTNB were prepared using distilled water and stored at 8°C before further use. For 15 minutes, the solution mixture was incubated at 30 °C, after which a solution of the substrate (50 µl) was added and then subjected to spectroscopic analysis. Using a double beam spectrophotometer, the sample absorbance was measured for 4 minutes at 412 nm beside the time of reaction. […] All values were taken in triplicate under the same conditions.
(§2) Enzymatic activity percentage=V/Vmaxx100
(§3) V is the reaction rate in the inhibitor's presence, whereas Vmax is the reaction rate in the absence of the inhibitor.

[2] = target: T2, BChE (source equine serum) (Equus caballus, UniProt P81908); test: biochemical; conditions: for inhibition at 62.5 µg/mL / inhibition at 125 µg/mL / inhibition at 250 µg/mL / inhibition at 500 µg/mL / inhibition at 1000 µg/mL: read-out: % BChE Inhibition
T2 construct: from tissue; host or cells: equine serum
T2 sequence (P81908 whole entry): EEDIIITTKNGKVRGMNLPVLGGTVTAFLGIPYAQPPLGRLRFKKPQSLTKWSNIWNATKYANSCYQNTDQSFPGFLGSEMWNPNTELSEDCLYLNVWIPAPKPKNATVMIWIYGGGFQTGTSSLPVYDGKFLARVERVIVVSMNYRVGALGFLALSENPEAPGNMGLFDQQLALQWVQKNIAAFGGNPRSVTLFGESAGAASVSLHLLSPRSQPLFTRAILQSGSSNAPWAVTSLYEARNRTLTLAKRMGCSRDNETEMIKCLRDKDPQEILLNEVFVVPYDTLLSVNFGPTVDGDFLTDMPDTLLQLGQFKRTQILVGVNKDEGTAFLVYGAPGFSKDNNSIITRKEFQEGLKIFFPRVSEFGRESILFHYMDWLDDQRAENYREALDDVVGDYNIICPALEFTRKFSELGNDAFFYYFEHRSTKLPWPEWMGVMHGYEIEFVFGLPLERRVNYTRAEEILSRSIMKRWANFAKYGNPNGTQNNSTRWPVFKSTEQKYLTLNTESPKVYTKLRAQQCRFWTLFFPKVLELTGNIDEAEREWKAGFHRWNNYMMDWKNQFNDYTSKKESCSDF
Method: as §1, §2, §3

[3] = DPPH antioxidant assay; format: physicochemical; conditions: for % Inhibition (DPPH free radicals): mean ± SEM
Method: To evaluate the in-vitro antioxidant potential of the synthesized derivatives, a previously reported 1,1 Diphenyl, 2 Picrylhydrazyl (DPPH) assay was utilized. The DPPH solution was prepared by dissolving twenty-four mg DPPH in methanol (100 ml). Test sample solutions in various concentrations (62.50 to 1000 μg/mL) were also prepared. From each dilution, 1 ml sample solution was taken to which 1 ml solution of DPPH was added. The solution mixture was incubated at 23°C for 30 minutes in the dark and then subjected to a UV-visible spectrophotometer to note the absorbance at 517 nm. The absorbance values of all samples were taken in triplicate. Ascorbic acid served as positive control, while negative control only contained a solution of DPPH having no test samples. The % free radical scavenging potential of our compounds was determined by the given formula.
% free radical scavenging activity = [drawing 2] x100
X is the control absorbance, whereas X1 is the absorbance of the test sample.

T1 sequence (O42275 24-633): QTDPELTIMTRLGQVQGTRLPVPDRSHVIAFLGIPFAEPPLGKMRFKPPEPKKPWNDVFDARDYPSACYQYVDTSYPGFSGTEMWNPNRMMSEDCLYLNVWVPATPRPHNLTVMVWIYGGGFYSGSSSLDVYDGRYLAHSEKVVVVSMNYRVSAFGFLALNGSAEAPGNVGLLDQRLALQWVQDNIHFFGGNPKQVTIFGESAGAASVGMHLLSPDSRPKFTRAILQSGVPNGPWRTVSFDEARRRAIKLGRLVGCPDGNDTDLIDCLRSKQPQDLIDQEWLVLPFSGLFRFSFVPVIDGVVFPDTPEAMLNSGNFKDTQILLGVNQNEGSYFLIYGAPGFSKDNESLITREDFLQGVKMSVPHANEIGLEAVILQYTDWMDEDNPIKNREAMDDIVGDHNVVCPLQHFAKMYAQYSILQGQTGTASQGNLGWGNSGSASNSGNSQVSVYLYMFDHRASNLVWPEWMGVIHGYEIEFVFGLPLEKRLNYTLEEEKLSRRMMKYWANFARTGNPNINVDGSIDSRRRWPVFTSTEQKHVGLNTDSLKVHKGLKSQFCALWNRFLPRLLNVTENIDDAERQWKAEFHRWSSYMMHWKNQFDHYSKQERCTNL

| Compound | IC50 [1] [µM] | inhibition at 62.5 µg/mL [1] [%] | inhibition at 125 µg/mL [1] [%] | inhibition at 250 µg/mL [1] [%] | inhibition at 500 µg/mL [1] [%] | inhibition at 1000 µg/mL [1] [%] | IC50 [2] [µM] | inhibition at 62.5 µg/mL [2] [%] | inhibition at 125 µg/mL [2] [%] | inhibition at 250 µg/mL [2] [%] | inhibition at 500 µg/mL [2] [%] | inhibition at 1000 µg/mL [2] [%] | IC50 [3] [µM] | % Inhibition (DPPH free radicals) ([3]; 62.5 µg/ml) [%] | % Inhibition (DPPH free radicals) ([3]; 125 µg/ml) [%] | % Inhibition (DPPH free radicals) ([3]; 250 µg/ml) [%] | % Inhibition (DPPH free radicals) ([3]; 500 µg/ml) [%] | % Inhibition (DPPH free radicals) ([3]; 1000 µg/ml) [%] |
| --- | --- | --- | --- | --- | --- | --- | --- | --- | --- | --- | --- | --- | --- | --- | --- | --- | --- | --- |
| C/C(=N/Cc1ccc(C)cc1)[C@H]1CC[C@H]2[C@@H]3CCC4=CC(=O)CC[C@]4(C)[C@H]3CC[C@]12C [AN2, (8S,9S,10R,13S,14S)-17-((Z)-1-((4-methylbenzyl)imino)ethyl)-10,13-dimethyl-1,2,6,7,8,9,10,11,12,13,14,15,16,17-tetradecahydro-3H-cyc-lopenta[a]phenanthren-3-one] | 173 | 48.3 | 57.4 | 64.3 | 75.7 ± 1.26 | 75.7 ± 2.82 | 138 | 50.8 | 52.9 | 74.1 | 72 | 77.5 ± 1.29 | 62.5 | 55.65 ± 2.44 | 57.44 ± 2.47 | 65.77 ± 3.32 | 66.26 ± 1.60 | 71.47 ± 1.83 |
| COc1ccc(C/N=C(/C)[C@H]2CC[C@H]3[C@@H]4CCC5=CC(=O)CC[C@]5(C)[C@H]4CC[C@]23C)cc1OC [AN3, (8S,9S,10R,13S,14S,17S)-17-((Z)-1-((3,4-dimethoxybenzyl)imino)ethyl)-10,13-dimethyl-1,2,6,7,8,9,10,11,12,13,14,15,16,17-tetradecahydro-3H-cyclo-penta[a]phenanthren-3-one] | 133 | 50.7 | 62.9 | 64.6 | 78.2 | 82.8 ± 2.02 | 112 | 55.5 | 59.9 | 64.3 | 81.8 | 87.9 ± 1.96 | 86.4 | 54.18 ± 2.16 | 56.86 ± 2.33 | 61.18 ± 2.23 | 66.44 ± 2.58 | 72.32 ± 1.37 |
| C/C(=N/Cc1ccc(Cl)cc1)[C@H]1CC[C@H]2[C@@H]3CCC4=CC(=O)CC[C@]4(C)[C@H]3CC[C@]12C [AN4, (8S,9S,10R,13S,14S,17S)-17-((Z)-1-((4-chlorobenzyl)imino)ethyl)-10,13-dimethyl-1,2,6,7,8,9,10,11,12,13,14,15,16,17-tetradecahydro-3H-cyclopenta [a]phenanthren-3-one] | 213 | 47 | 52.7 | 60.3 | 67.7 | 70 ± 2.26 | 149 | 49.5 | 56.9 | 63.1 | 64.7 | 76.3 ± 1.56 | 188 | 46.88 ± 0.65 | 55.52 ± 3.43 | 60.69 ± 1.92 | 66.80 ± 3.47 | 69.87 ± 2.81 |
